Source: ChEMBL document CHEMBL3407404, “Cyclopentyl-pyrimidine based analogues as novel and potent IGF-1R inhibitor” (Eur J Med Chem, 2015)

Tests used:
[1] = target: Insulin-like growth factor 1 receptor (Homo sapiens, UniProt P08069); assay: Inhibition of IGF1R (unknown origin) using poly-G1 as substrate incubated for 10 mins prior to substrate addition measured after 1 hr by time-resolved fluorescence assay
[2] = target: Insulin receptor (Homo sapiens, UniProt P06213); assay: Inhibition of IR (unknown origin) using poly-G1 as substrate incubated for 10 mins prior to substrate addition measured after 1 hr by time-resolved fluorescence assay
Insulin receptor, sequence (P06213 28-758 limits assumed): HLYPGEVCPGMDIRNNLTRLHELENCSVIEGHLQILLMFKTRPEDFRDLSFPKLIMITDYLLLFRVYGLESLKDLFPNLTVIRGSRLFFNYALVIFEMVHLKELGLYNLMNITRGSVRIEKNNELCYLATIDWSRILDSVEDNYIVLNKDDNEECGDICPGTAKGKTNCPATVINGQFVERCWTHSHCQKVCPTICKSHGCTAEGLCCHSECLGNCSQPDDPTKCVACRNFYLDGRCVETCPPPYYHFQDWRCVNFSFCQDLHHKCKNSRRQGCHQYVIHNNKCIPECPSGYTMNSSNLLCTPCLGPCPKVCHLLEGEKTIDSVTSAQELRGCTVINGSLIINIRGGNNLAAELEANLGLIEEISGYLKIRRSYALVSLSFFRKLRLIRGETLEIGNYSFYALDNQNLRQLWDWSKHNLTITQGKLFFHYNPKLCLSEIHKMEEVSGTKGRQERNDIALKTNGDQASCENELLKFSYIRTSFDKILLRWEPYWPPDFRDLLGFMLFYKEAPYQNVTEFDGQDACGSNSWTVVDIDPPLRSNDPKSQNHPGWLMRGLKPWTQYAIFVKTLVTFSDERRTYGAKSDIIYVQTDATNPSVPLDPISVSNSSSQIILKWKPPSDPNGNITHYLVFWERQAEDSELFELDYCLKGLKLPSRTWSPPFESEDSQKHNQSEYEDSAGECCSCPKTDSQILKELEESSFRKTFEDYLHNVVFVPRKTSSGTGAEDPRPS
Insulin receptor, sequence (P06213 763-1382 limits assumed): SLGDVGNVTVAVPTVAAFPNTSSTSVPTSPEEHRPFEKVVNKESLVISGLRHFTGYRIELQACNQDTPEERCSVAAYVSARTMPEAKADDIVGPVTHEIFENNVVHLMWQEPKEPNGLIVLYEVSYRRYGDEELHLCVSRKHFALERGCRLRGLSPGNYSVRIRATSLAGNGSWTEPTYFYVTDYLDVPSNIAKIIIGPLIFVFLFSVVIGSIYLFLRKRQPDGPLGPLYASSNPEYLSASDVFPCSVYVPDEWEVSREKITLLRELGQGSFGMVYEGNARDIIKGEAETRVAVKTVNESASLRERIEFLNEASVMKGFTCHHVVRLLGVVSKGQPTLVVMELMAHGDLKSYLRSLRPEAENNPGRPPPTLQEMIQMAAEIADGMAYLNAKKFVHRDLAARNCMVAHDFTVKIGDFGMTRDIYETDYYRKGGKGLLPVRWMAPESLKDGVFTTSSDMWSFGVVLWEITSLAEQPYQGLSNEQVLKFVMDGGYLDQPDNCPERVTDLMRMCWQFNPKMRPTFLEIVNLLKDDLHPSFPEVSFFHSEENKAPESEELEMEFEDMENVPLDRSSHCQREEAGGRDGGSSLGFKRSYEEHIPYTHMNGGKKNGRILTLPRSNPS

[3] = Growth inhibition of human H460 cells after 48 hrs by propidium iodide staining-based fluorescence assay; type: functional, cell-based; details: NCI-H460, 48 h
[4] = system: A-431; assay: Growth inhibition of human A431 cells after 48 hrs by propidium iodide staining-based fluorescence assay; type: functional, cell-based; details: A-431, 48 h
[5] = Growth inhibition of human HCT116 cells after 48 hrs by propidium iodide staining-based fluorescence assay; type: functional, cell-based; details: HCT-116, 48 h
[6] = Growth inhibition of human COLO205 cells after 48 hrs by propidium iodide staining-based fluorescence assay; type: functional, cell-based; details: COLO 205, 48 h
[7] = system: MDA-MB-231; assay: Growth inhibition of human MDA-MB-231 cells after 48 hrs by propidium iodide staining-based fluorescence assay; type: functional, cell-based; details: MDA-MB-231, 48 h
[8] = system: MCF7; assay: Growth inhibition of human MCF7 cells after 48 hrs by propidium iodide staining-based fluorescence assay; type: functional, cell-based; details: MCF7, 48 h
[9] = system: NCI-H1975; assay: Growth inhibition of human NCI-H1975 cells after 48 hrs by propidium iodide staining-based fluorescence assay; type: functional, cell-based; details: NCI-H1975, 48 h
[10] = Half life in Sprague-Dawley rat at 10 mg/kg, po; type: ADME, organism-based; parameters: dose 10 mg/kg, route oral; details: in vivo
[11] = Half life in Sprague-Dawley rat at 2 mg/kg, iv; type: ADME, organism-based; parameters: dose 2 mg/kg, route intravenous; details: in vivo
[12] = Initial concentration in Sprague-Dawley rat at 2 mg/kg, iv; type: ADME, organism-based; parameters: dose 2 mg/kg, route intravenous; details: in vivo
[13] = Clearance in Sprague-Dawley rat at 2 mg/kg, iv; type: ADME, organism-based; parameters: dose 2 mg/kg, route intravenous; details: in vivo
[14] = Volume of distribution at steady state in Sprague-Dawley rat at 2 mg/kg, iv; type: ADME, organism-based; parameters: dose 2 mg/kg, route intravenous; details: in vivo, read-out: Vdss
[15] = Oral bioavailability in Sprague-Dawley rat at 10 mg/kg; type: ADME, organism-based; details: in vivo

Insulin-like growth factor 1 receptor, sequence (P08069 31-736 limits assumed): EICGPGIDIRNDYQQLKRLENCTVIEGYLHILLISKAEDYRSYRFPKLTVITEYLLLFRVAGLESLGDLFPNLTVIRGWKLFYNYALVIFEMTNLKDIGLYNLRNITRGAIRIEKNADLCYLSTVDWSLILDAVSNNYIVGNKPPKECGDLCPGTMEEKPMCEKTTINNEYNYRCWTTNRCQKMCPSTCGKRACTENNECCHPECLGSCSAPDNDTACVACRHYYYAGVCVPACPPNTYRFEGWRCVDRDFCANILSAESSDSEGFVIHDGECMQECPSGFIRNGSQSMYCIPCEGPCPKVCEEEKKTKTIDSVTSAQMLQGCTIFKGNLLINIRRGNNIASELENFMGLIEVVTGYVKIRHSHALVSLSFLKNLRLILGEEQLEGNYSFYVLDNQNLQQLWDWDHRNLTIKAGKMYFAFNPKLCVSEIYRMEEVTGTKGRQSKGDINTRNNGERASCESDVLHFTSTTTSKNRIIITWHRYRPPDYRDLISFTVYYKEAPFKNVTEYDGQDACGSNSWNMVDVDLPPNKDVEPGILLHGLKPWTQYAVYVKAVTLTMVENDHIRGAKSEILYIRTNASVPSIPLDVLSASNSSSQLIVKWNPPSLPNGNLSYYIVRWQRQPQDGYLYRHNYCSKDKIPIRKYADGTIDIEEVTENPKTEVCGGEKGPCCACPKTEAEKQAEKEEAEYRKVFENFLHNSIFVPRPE
Insulin-like growth factor 1 receptor, sequence (P08069 741-1367 limits assumed): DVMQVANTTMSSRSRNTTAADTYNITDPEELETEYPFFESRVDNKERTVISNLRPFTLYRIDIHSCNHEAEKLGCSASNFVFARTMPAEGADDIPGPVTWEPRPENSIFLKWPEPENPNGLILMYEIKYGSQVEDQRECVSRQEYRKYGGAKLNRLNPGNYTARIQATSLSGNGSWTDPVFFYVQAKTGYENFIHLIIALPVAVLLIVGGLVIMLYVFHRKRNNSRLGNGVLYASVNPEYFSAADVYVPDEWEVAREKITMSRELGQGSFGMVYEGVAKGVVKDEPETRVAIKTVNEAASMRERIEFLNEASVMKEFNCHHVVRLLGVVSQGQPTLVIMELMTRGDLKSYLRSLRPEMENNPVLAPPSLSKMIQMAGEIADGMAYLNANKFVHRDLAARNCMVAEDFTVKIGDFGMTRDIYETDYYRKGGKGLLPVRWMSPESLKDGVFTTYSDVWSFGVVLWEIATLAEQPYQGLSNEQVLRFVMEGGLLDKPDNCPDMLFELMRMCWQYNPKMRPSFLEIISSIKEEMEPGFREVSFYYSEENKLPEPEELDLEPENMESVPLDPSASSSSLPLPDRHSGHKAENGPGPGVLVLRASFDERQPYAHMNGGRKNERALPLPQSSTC

| SMILES | IC50 ([1]; read-out: IC50) [nM] | other results |
| --- | --- | --- |
| Cc1cc(Nc2nc(N3CCC(C)CC3)nc3c2CCC3)n[nH]1 | – | IC50 [1]: Not Active |
| CN(C)CCN(C)c1nc2c(c(Nc3cc(C4CC4)[nH]n3)n1)CCC2 | > 1000 | – |
| c1c(Nc2nc(N3CCNCC3)nc3c2CCC3)n[nH]c1C1CC1 | > 1000 | – |
| OCC1CCCN(c2nc3c(c(Nc4cc(C5CC5)[nH]n4)n2)CCC3)C1 (centres undefined) | 90 | – |
| CCN(CC)C(=O)C1CCCN(c2nc3c(c(Nc4cc(C5CC5)[nH]n4)n2)CCC3)C1 (centres undefined) | 184 | – |
| O=C(O)C1CCN(c2nc3c(c(Nc4cc(C5CC5)[nH]n4)n2)CCC3)CC1 | > 1000 | – |
| c1c(Nc2nc(N3CCCCCCC3)nc3c2CCC3)n[nH]c1C1CC1 | 58 | – |
| c1c(Nc2nc(N3CC4CCC3C4)nc3c2CCC3)n[nH]c1C1CC1 (centres undefined) | 41 | – |
| c1ccc(CNc2nc3c(c(Nc4cc(C5CC5)[nH]n4)n2)CCC3)cc1 | 267 | – |
| Cc1ccc(CNc2nc3c(c(Nc4cc(C5CC5)[nH]n4)n2)CCC3)cc1 | 149 | – |
| CC1CCN(c2nc3c(c(Nc4cc(-c5ccccc5)[nH]n4)n2)CCC3)CC1 | > 1000 | – |
| c1ccc(-c2cc(Nc3nc(N4CCCCCC4)nc4c3CCC4)n[nH]2)cc1 | > 1000 | – |
| c1ccc(-c2nc3c(c(Nc4cc(C5CC5)[nH]n4)n2)CCC3)cc1 | 97 | – |
| Cc1cc(Nc2nc(N3CCCCC3)nc3c2CCC3)n[nH]1 | 442 | – |
| Cc1cc(Nc2nc(N3CCCCCC3)nc3c2CCC3)n[nH]1 | 2000 | – |
| CCOC(=O)C1CCCN(c2nc3c(c(Nc4cc(C)[nH]n4)n2)CCC3)C1 (centres undefined) | 970 | – |
| CC(C)(C)c1cc(Nc2nc(N3CCCCC3)nc3c2CCC3)n[nH]1 | 251 | – |
| CC(C)(C)c1cc(Nc2nc(N3CCCCCC3)nc3c2CCC3)n[nH]1 | 568 | – |
| CCOC(=O)C1CCCN(c2nc3c(c(Nc4cc(C(C)(C)C)[nH]n4)n2)CCC3)C1 (centres undefined) | 108 | – |

Continued, in another order:

| IC50 ([1]; read-out: IC50) [nM] | SMILES | other results |
| --- | --- | --- |
| 32 | c1c(Nc2nc(N3CCCCC3)nc3c2CCC3)n[nH]c1C1CC1 | – |
| 20 | CC1CCN(c2nc3c(c(Nc4cc(C5CC5)[nH]n4)n2)CCC3)CC1 | IC50 [2]: 110 nM; IC50 [3]: 180 nM; IC50 [4]: 340 nM; IC50 [5]: 350 nM; IC50 [6]: 2190 nM; IC50 [7]: 700 nM; IC50 [8]: 1670 nM; IC50 [9]: 3000 nM; half-life [10]: 52.2 min; half-life [11]: 51 min; C0 [12]: 1050 ng/mL; clearance [13]: 59.1 mL/min/kg; Vd [14]: 4.37 L/kg; bioavailability [15]: 11.3% |
| 203 | CC1(C)CCN(c2nc3c(c(Nc4cc(C5CC5)[nH]n4)n2)CCC3)CC1 | – |
| 35 | CCOC(=O)C1CCN(c2nc3c(c(Nc4cc(C5CC5)[nH]n4)n2)CCC3)CC1 | – |
| 124 | N#CC1CCN(c2nc3c(c(Nc4cc(C5CC5)[nH]n4)n2)CCC3)CC1 | – |
| 10 | c1c(Nc2nc(N3CCCCCC3)nc3c2CCC3)n[nH]c1C1CC1 | – |
| 300 | CC1CCN(c2nc3c(c(Nc4cc(C(C)(C)C)[nH]n4)n2)CCC3)CC1 | – |
| 1190 | CC1CCN(c2nc(Nc3cc(C4CC4)[nH]n3)c3c(n2)C2CCC3C2)CC1 (centres undefined) | – |
| 786 | CC1CCN(c2nc(Nc3cc(C4CC4)[nH]n3)c3c(n2)C(F)(F)CC3)CC1 | – |
| 1500 | CC1CCN(c2nc(Nc3cc(C4CC4)[nH]n3)c3c(n2)C(C)(C)CC3)CC1 | – |
| 2800 | CC1CCN(c2nc(Nc3cc(C4CC4)[nH]n3)c3c(n2)C2(CCCC2)CC3)CC1 | – |
